Data: PMC2576352, “The V1-V3 region of a brain-derived HIV-1 envelope glycoprotein determines macrophage tropism, low CD4 dependence, increased fusogenicity and altered sensitivity to entry inhibitors” (Retrovirology, 2008)
Peptide text beside a SMILES is read from it.

Key:
[1] = test system: Spl(T283N) mutant Env pseudotype; assay: Inhibition of pseudotype infection by entry/fusion inhibitors, Spl(T283N) Env; type: cell-based, HIV-1; details: HOS-CD4-CCR5 cells, inhibitor + virus 5–6 h at 37°C, luciferase at 2–3 days, non-linear regression, 95% confidence limits in parentheses
Method: (§1) To produce Env-pseudotyped, luciferase-reporter viruses, 293T cells were co-transfected using calcium phosphate precipitation (ProFection Mammalian Transfection System, Promega, Madison, WI) with each Env expression vector and with the Env-deficient, pNL4-3-luc^+env^- provirus, developed by N. Landau by introducing a frameshift mutation in the env gene of pNL4-3-luc^+ [87]. Culture supernatants containing the pseudotyped particles were collected 48–72 hours after transfection, clarified by centrifugation, aliquoted and stored at -80°C until use. Pseudotype particles lacking envelope glycoproteins, which are generated by co-transfecting the luciferase HIV-1 pro-viral backbone with an empty expression vector, are used as negative control for all pseudotype infections. Pseudotype stocks were quantitated using a p24^gag antigen capture ELISA (SAIC-National Cancer Institute) and normalized amounts of stocks were used to infect target cells for 5–6 hours at 37°C. At 2–3 days post-infection, the cells were washed with PBS and lysed, and the amount of entry mediated by each Env was measured by detecting luciferase activity (Luciferase Assay System, Promega) in a microplate luminometer (GloMax, Promega), following manufacturer's instructions. Results are obtained as relative light units (RLU) per second. […]

[2] = test system: BaL Env pseudotype; type: cell-based, HIV-1; details: HOS-CD4-CCR5 cells, inhibitor + virus 5–6 h at 37°C, luciferase at 2–3 days, non-linear regression, 95% confidence limits in parentheses
Method: (§2) To produce Env-pseudotyped, luciferase-reporter viruses, 293T cells were co-transfected using calcium phosphate precipitation (ProFection Mammalian Transfection System, Promega, Madison, WI) with each Env expression vector and with the Env-deficient, pNL4-3-luc^+env^- provirus, developed by N. Landau by introducing a frameshift mutation in the env gene of pNL4-3-luc^+ [87]. Culture supernatants containing the pseudotyped particles were collected 48–72 hours after transfection, clarified by centrifugation, aliquoted and stored at -80°C until use. Pseudotype particles lacking envelope glycoproteins, which are generated by co-transfecting the luciferase HIV-1 pro-viral backbone with an empty expression vector, are used as negative control for all pseudotype infections. Pseudotype stocks were quantitated using a p24^gag antigen capture ELISA (SAIC-National Cancer Institute) and normalized amounts of stocks were used to infect target cells for 5–6 hours at 37°C. At 2–3 days post-infection, the cells were washed with PBS and lysed, and the amount of entry mediated by each Env was measured by detecting luciferase activity (Luciferase Assay System, Promega) in a microplate luminometer (GloMax, Promega), following manufacturer's instructions. Results are obtained as relative light units (RLU) per second. At least three independent experiments were performed for each analysis described below, with 2–8 replicates within each experiment.
(§3) To test for sensitivity to fusion inhibitors, BMS-378806 and HNG-105, the medium from HOS-CD4-CCR5 cells plated in 96-well plates 24 hours before infection, was removed and replaced by fresh medium containing 2× the final concentration of the corresponding inhibitor, and immediately the same volume of viral stocks was added. After 5–6 hours at 37°C, inocula and inhibitors were removed and the cells were incubated for 2–3 days before evaluating the amount of infection.
(§4) Inhibition curves obtained by plotting the relative infection (expressed as a percent of untreated) versus the concentration of the inhibitor were analyzed by non-linear regression with a sigmoidal dose-response model (variable slopes) using GraphPad Prism software, version 4.02 (GraphPad Software, San Diego, CA); this analysis uses a four parameter logistic equation, Y = Bottom + (Top-Bottom)/( 1+10^((log10IC50−X)⋅Slope) ) where Y is the response, Bottom is 0 and Top is 100, X is the logarithm of the concentration, and Slope is the slope of the curve. 50% inhibitory concentrations (IC50) and 95% confidence intervals were estimated from the non-linear regression analysis. Fusogenicity data were analyzed by non-linear regression with a one-phase exponential model (using GraphPad Prism) that uses the equation Y=Ymax(1-e^(-kX)), where Ymax is the maximum response and k is the observed rate. CD4 dependence data were analyzed with SPSS, version 16, using the non-parametric Mann-Whitney test.

[3] = test system: Spl (spleen-derived) Env pseudotype; type: cell-based, HIV-1; details: HOS-CD4-CCR5 cells, inhibitor + virus 5–6 h at 37°C, luciferase at 2–3 days, non-linear regression, 95% confidence limits in parentheses
Method: as §2, §3, §4

[4] = test system: BS chimeric Env (brain gp120-spleen gp41) pseudotype; type: cell-based, HIV-1; details: HOS-CD4-CCR5 cells, inhibitor + virus 5–6 h at 37°C, luciferase at 2–3 days, non-linear regression, 95% confidence limits in parentheses
Method: as §2, §3, §4

[5] = test system: SB chimeric Env (spleen gp120-brain gp41) pseudotype; type: cell-based, HIV-1; details: HOS-CD4-CCR5 cells, inhibitor + virus 5–6 h at 37°C, luciferase at 2–3 days, non-linear regression, 95% confidence limits in parentheses
Method: as §2, §3, §4

[6] = test system: Br(N283T) mutant Env pseudotype; type: cell-based, HIV-1; details: HOS-CD4-CCR5 cells, inhibitor + virus 5–6 h at 37°C, luciferase at 2–3 days, non-linear regression, 95% confidence limits in parentheses
Method: as §2, §3, §4

[7] = test system: Bv1v2 chimeric Env pseudotype; type: cell-based, HIV-1; details: HOS-CD4-CCR5 cells, inhibitor + virus 5–6 h at 37°C, luciferase at 2–3 days, non-linear regression, 95% confidence limits in parentheses
Method: as §2, §3, §4

[8] = test system: Bv1v3 chimeric Env pseudotype; type: cell-based, HIV-1; details: HOS-CD4-CCR5 cells, inhibitor + virus 5–6 h at 37°C, luciferase at 2–3 days, non-linear regression, 95% confidence limits in parentheses
Method: as §2, §3, §4

[9] = test system: DS17(N283T) mutant Env pseudotype; type: cell-based, HIV-1; details: HOS-CD4-CCR5 cells, inhibitor + virus 5–6 h at 37°C, luciferase at 2–3 days, non-linear regression, 95% confidence limits in parentheses
Method: as §2, §3, §4

[10] = test system: DS17 Env pseudotype; type: cell-based, HIV-1; details: HOS-CD4-CCR5 cells, inhibitor + virus 5–6 h at 37°C, luciferase at 2–3 days, non-linear regression, 95% confidence limits in parentheses
Method: as §2, §3, §4

[11] = test system: Br (brain-derived) Env pseudotype; type: cell-based, HIV-1; details: HOS-CD4-CCR5 cells, inhibitor + virus 5–6 h at 37°C, luciferase at 2–3 days, non-linear regression, 95% confidence limits in parentheses
Method: as §2, §3, §4

[12] = test system: Sv1v2 chimeric Env pseudotype; assay: Inhibition of pseudotype infection by entry/fusion inhibitors, Sv1v2 Env; type: cell-based, HIV-1; details: HOS-CD4-CCR5 cells, inhibitor + virus 5–6 h at 37°C, luciferase at 2–3 days, non-linear regression, 95% confidence limits in parentheses
Method: as §1

[13] = test system: pseudotypes containing wild-type, chimeric and mutant Env; assay: Inhibition of pseudotype infection by entry/fusion inhibitors, Env panel; type: cell-based, HIV-1
Method: as §1
as §4, with “50% inhibitory concentrations (IC50) and 95% confidence intervals were estimated from the non-linear regression analysis.” left out, “CD4 dependence data were analyzed with SPSS, version 16, using the non-parametric Mann-Whitney test.” left out

[14] = test system: macrophage-tropic Env; details: Peters et al.; cited from earlier work
Excerpt: Therefore, low CD4 dependence seems to correlate not only with fusogenicity and with the sensitivity to fusion and other entry inhibitors, but also with the macrophage tropism of Env. This is in agreement with recent work by Thomas et al. reporting that Env conferring macrophage tropism display low CD4 dependence and higher efficiency of fusion.

[15] = test system: Sv1v3 chimeric Env pseudotype; assay: Inhibition of pseudotype infection by entry/fusion inhibitors, Sv1v3 Env; type: cell-based, HIV-1; details: HOS-CD4-CCR5 cells, inhibitor + virus 5–6 h at 37°C, luciferase at 2–3 days, non-linear regression, 95% confidence limits in parentheses
Method: as §1

[16] = test system: HxB Env pseudotype; assay: Inhibition of pseudotype infection by entry/fusion inhibitors, HxB Env; type: cell-based, HIV-1; details: inhibitor + virus 5–6 h at 37°C, luciferase at 2–3 days, non-linear regression, 95% confidence limits in parentheses
Method: as §1

| SMILES | IC50 [1] | IC50 [2] | IC50 [3] | IC50 [4] | IC50 [5] | IC50 [6] | IC50 [7] | IC50 [8] | IC50 [9] | IC50 [10] | IC50 [11] | IC50 [12] | sensitivity of pseudotypes to inhibitor ([13]; BR, BR(N283T), BS and Bv1v3 Env vs SPL, SPL(T283N), SB, Sv1v3 or Sv1v2) | sensitivity of pseudotypes to inhibitor ([13]; DS17 and DS17(N283T) Env vs BR and Env with related phenotype) | relation of inhibitor sensitivity to macrophage tropism [14] | IC50 [15] | IC50 [16] |
| --- | --- | --- | --- | --- | --- | --- | --- | --- | --- | --- | --- | --- | --- | --- | --- | --- | --- |
| COc1ccnc2[nH]cc(C(=O)C(=O)N3CCN(C(=O)c4ccccc4)C[C@H]3C)c12 [BMS-378806] | 0.9 nM | 29 nM | 1.8 nM | 20 nM | 2 nM | 13 nM | 4.8 nM | 8.2 nM | 32 nM | 41 nM | 15 nM | 1.2 nM | significantly less sensitive to inhibition by BMS-378806 | reduced sensitivity to BMS-378806 as compared to the BR | correlated with increasing macrophage tropism | 0.9 nM | 3.9 nM |
| CC[C@H](C)[C@H](NC(=O)[C@H](CCC(N)=O)NC(=O)[C@H](C)NC(=O)[C@H](CCC(N)=O)NC(=O)[C@H](CCC(=O)O)NC(=O)[C@H](CC(C)C)NC(=O)[C@H](CC(C)C)NC(=O)[C@H](C)NC(=O)[C@@H](NC(=O)[C@@H](NC(=O)[C@H](CCCCN)NC(=O)[C@H](CCC(N)=O)NC(=O)[C@H](CCC(=O)O)NC(=O)[C@H](Cc1c[nH]c2ccccc12)NC(=O)[C@H](CCC(=O)O)NC(=O)[C@H](CCC(N)=O)NC(=O)[C@@H](N)Cc1c[nH]c2ccccc12)[C@@H](C)CC)[C@@H](C)O)C(=O)N[C@@H](CCC(N)=O)C(=O)N[C@@H](CCC(N)=O)C(=O)N[C@@H](CCC(=O)O)C(=O)N[C@@H](CCSC)C(=O)N[C@@H](CC(N)=O)C(=O)N[C@@H](CCC(=O)O)C(=O)N[C@@H](CCC(N)=O)C(=O)N[C@@H](CCC(=O)O)C(=O)N[C@@H](CC(C)C)C(=O)N[C@@H](CCC(N)=O)C(=O)N[C@@H](CCCCN)C(=O)N[C@@H](CC(C)C)C(=O)N[C@@H](CC(=O)O)C(=O)N[C@H](C(=O)N[C@@H](Cc1c[nH]c2ccccc12)C(=O)N[C@@H](C)C(=O)N[C@@H](CO)C(=O)N[C@@H](CC(C)C)C(=O)N[C@@H](Cc1c[nH]c2ccccc12)C(=O)N[C@@H](CCC(=O)O)C(=O)N[C@@H](Cc1c[nH]c2ccccc12)C(=O)N[C@@H](Cc1ccccc1)C(=O)O)[C@@H](C)O [T-1249-BR] (H-WQEWEQKITALLEQAQIQQEMNEQELQKLDTWASLWEWF-OH) | – | 124 nM | 27 nM | 155 nM | 41 nM | 221 nM | 155 nM | 245 nM | 104 nM | 92 nM | 195 nM | – | – | – | – | – | – |
| CC[C@H](C)[C@H](NC(=O)[C@H](CCC(N)=O)NC(=O)[C@H](C)NC(=O)[C@H](CCC(N)=O)NC(=O)[C@H](CCC(=O)O)NC(=O)[C@H](CC(C)C)NC(=O)[C@H](CC(C)C)NC(=O)[C@H](C)NC(=O)[C@@H](NC(=O)[C@@H](NC(=O)[C@H](CCCCN)NC(=O)[C@H](CCC(N)=O)NC(=O)[C@H](CCC(=O)O)NC(=O)[C@H](Cc1c[nH]c2ccccc12)NC(=O)[C@H](CCC(=O)O)NC(=O)[C@H](CCC(N)=O)NC(=O)[C@@H](N)Cc1c[nH]c2ccccc12)[C@@H](C)CC)[C@@H](C)O)C(=O)N[C@@H](CCC(N)=O)C(=O)N[C@@H](CCC(N)=O)C(=O)N[C@@H](CCC(=O)O)C(=O)N[C@@H](CCCCN)C(=O)N[C@@H](CC(N)=O)C(=O)N[C@@H](CCC(=O)O)C(=O)N[C@@H](Cc1ccc(O)cc1)C(=O)N[C@@H](CCC(=O)O)C(=O)N[C@@H](CC(C)C)C(=O)N[C@@H](CCC(N)=O)C(=O)N[C@@H](CCCCN)C(=O)N[C@@H](CC(C)C)C(=O)N[C@@H](CC(=O)O)C(=O)N[C@@H](CCCCN)C(=O)N[C@@H](Cc1c[nH]c2ccccc12)C(=O)N[C@@H](C)C(=O)N[C@@H](CO)C(=O)N[C@@H](CC(C)C)C(=O)N[C@@H](Cc1c[nH]c2ccccc12)C(=O)N[C@@H](CCC(=O)O)C(=O)N[C@@H](Cc1c[nH]c2ccccc12)C(=O)N[C@@H](Cc1ccccc1)C(=O)O [T-1249] | – | 102 nM | 37 nM | 140 nM | 83 nM | 166 nM | 224 nM | 227 nM | 155 nM | 210 nM | 173 nM | – | – | – | – | – | – |
